In patent US4368203A, “Antibiotics and derivatives thereof having β-lactamase inhibitory activity and production thereof” (priority 1977, dated 1983):
In brackets after ≈: the same amount, converted by molar mass. Entries after “also recorded” stand apart in the source; their conditions may differ. Where two headings read alike, the source gives them in different places.

Legend:
Solubility = format: physicochemical; conditions: 5 mg in 0.1 ml of solvent, shaking, 20° C.; for Solubility in organic solvents: solvents named in the value
From the text: The results are as shown as below:
The results are as shown below:

[1] = Acute toxicity, intraperitoneal administration; format: in vivo, DDY male mice; conditions: mice, 500 mg/kg
Proteus vulgaris P-5 [2] = assay: MIC, broth dilution method; conditions: Proteus vulgaris, P5, 20 h, read-out: Minimum inhibitory concentration
[3] = tested on: Klebsiella pneumoniae K-2; assay: MIC, broth dilution method; conditions: Klebsiella pneumoniae, K2, 20 h, read-out: Minimum inhibitory concentration
[4] = tested on: Enterobacter cloacae E-16; assay: MIC, broth dilution method; format: cell-based; conditions: Enterobacter cloacae, E16, 20 h, lactamase producing organism, read-out: Minimum inhibitory concentration
Procedure: Sodium salt of the antibiotic PS-7 was dissolved and diluted with the BRAIN HEART INFUSION BROTH "Eiken" at a concentration between 5 μg/ml and 100 μg/ml. The solution was further diluted with the same medium to obtain a series of geometric concentrations. To the serial dilutions were added the seed cultures prepared by shaking culture of various test microorganisms shown in Tab. 5 in the BRAIN HEART INFUSION GROTH at 28° C. for 18 hours, the final cell count being about 1×10^5 /ml. […] The lowest concentration at which no cell growth was observed was the minimum inhibitory concentration of the antibiotic PS-7 on the test microorganism. […] The minimum inhibitory concentrations on test strains were determined in the same manner as mentioned above.

[5] = Stability (general statements); format: physicochemical; conditions: general statement
[6] = tested on: Gram-positive and Gram-negative bacteria; assay: Antibiotic spectra (summary in words); format: cell-based; conditions: for Antibiotic activity against Gram-negative bacteria resistant to β-lactam antibiotics: genera Citrobacter, Proteus, Klebsiella, Enterobacter, Serratia as named at the place; for Antibiotic activity against Gram-positive bacteria: genera Staphylococcus, Diplococcus, Streptococcus, Bacillus as named at the place
[7] = tested on: Staphylococcus aureus Smith; assay: In vivo activity in intraperitoneally infected mice; parameters: species or system DDY male mice; conditions: for ED50: Staphylococcus aureus, sc, mice infected i.p. with 5×10^5 cells/mouse, subcutaneous injection just after infection, read-out: 50% curative dose (CD50); for Therapeutic effect in infected mice: mice infected with pathogenic Gram-positive bacteria
Procedure: Soon after infection, an aqueous solution of the antibiotic PS-5 sodium salt preparation was subcutaneously injected.
Activity of the antibiotic PS-7 obtained above was determined using mice infected with Staphylococcus aureus Smith at 5×10^5 cells a mouse intraperitoneally. Sodium salt of the antibiotic PS-7 was administered to the mice subcutaneously immediately after the infection.
The tritylation product of antibiotic PS-6 was subcutaneously injected just after infection. The 50% curative dose on male DDY mice (SHIZUOKA) was 5.5 mg/kg.
The tritylation product of antibiotic PS-7 was subcutaneously injected just after infection. The 50% curative dose on make DDY mice (SHIZUOKA) was 4.5 mg/kg.

[8] = tested on: Staphylococcus aureus FDA 209P; assay: MIC, broth dilution method; format: cell-based; conditions: FDA209P, 20 h, final methanol not above 10%, read-out: Minimum inhibitory concentration
Procedure: (§1) Sodium salt of the antibiotic PS-7 was dissolved and diluted with the BRAIN HEART INFUSION BROTH "Eiken" at a concentration between 5 μg/ml and 100 μg/ml. The solution was further diluted with the same medium to obtain a series of geometric concentrations. To the serial dilutions were added the seed cultures prepared by shaking culture of various test microorganisms shown in Tab. 5 in the BRAIN HEART INFUSION GROTH at 28° C. for 18 hours, the final cell count being about 1×10^5 /ml. […] The lowest concentration at which no cell growth was observed was the minimum inhibitory concentration of the antibiotic PS-7 on the test microorganism. […] . The minimum inhibitory concentrations on test strains were determined in the same manner as mentioned above. […] For the comparison, the results on the known antibiotics Cephazolin and Cefoxitin are also given in the same table.

Citrobacter freundii E-9 [9] = assay: MIC, broth dilution method; format: cell-based; conditions: Citrobacter freundii, E9, 20 h, lactamase producing organism, read-out: Minimum inhibitory concentration
Procedure: as §1

[10] = tested on: Alcaligenes faecalis B-326; assay: MIC, broth dilution method; format: cell-based; conditions: Alcaligenes faecalis, B326, 20 h, read-out: Minimum inhibitory concentration
Procedure: as §1

[11] = tested on: Diplococcus pneumoniae Type III; assay: MIC, broth dilution method; format: cell-based; conditions: Streptococcus pneumoniae, 20 h, 10% of horse blood in the medium, read-out: Minimum inhibitory concentration
Procedure: as §1

[12] = tested on: Streptococcus pyogenes NY-5; assay: MIC, broth dilution method; conditions: Streptococcus pyogenes, NY5, 20 h, read-out: Minimum inhibitory concentration
Proteus vulgaris P-5 [13] = assay: Potentiating and synergistic effect, pulp disc inhibition zone on agar plate; format: cell-based
Procedure: (§2) 10 ml of 2.5 folds diluted nutrient agar (pH 7.0) containing 50 μg/ml of penicillin G or cephaloridine was seeded with the β-lactamase producing and β-lactam-resistant microorganisms and poured in a 9 cm Petri dish to provide the bio-assay agar plate. […] A control assay plate was similarly prepared without penicillin G or cephaloridine. As reference antibiotics, 10,000 μg/ml of penicillin G or 20 μl of cephaloridine were disc-assayed under the same conditions.
(§3) Cepholoridine was added to a 2.5-times diluted nutrient agar, pH 7.0 and the medium was inoculated with a β-lactam-producing strain that produceds β-lactamase. Ten ml of the medium was spread and solidified in a petri dish of 9 cm in diameter to prepare an assay plate. […] Each 20 μl of the solution and its 2- and 4-times diluted solutions was soaked in a pulp disc of 8 mm in diameter. To the surface of the above nutrient agar was placed the pulp disc and the size of the growth inhibitory zone around the disc was examined after incubation at 35° C. for 18 hours. […] In addition, for the comparison, a similar experiment was also performed with a pulp disk soaked with 20 μl of 10,000 μg/ml Penicillin G or Cepholoridine solution in place of the antibiotic PS-7.

Serratia marcescens S-18 = assay: as above; format: cell-based
Procedure: (§4) 10 ml of 2.5 folds diluted nutrient agar (pH 7.0) containing 50 μg/ml of penicillin G or cephaloridine was seeded with the β-lactamase producing and β-lactam-resistant microorganisms and poured in a 9 cm Petri dish to provide the bio-assay agar plate. On this assay plate, 8 mm of pulp discs each containing 20 μl of antibiotic PS-6 solution at the concentration of 240 μg/ml were placed and incubated at 35° C. for 18 hours before reading the inhibition zones. A control assay plate was similarly prepared without penicillin G or cephaloridine. As reference antibiotics, 10,000 μg/ml of penicillin G or 20 μl of cephaloridine were disc-assayed under the same conditions.

Citrobacter freundii E-9 [14] = assay: as above; format: cell-based
Procedure: as §4

[15] = tested on: β-lactamase-producing, β-lactam-resistant bacteria; assay: Increase of the antibiotic activity of other antibiotics (summary in words); format: cell-based; conditions: β-lactamase-producing bacteria such as Proteus vulgaris, Serratia marcescens
Procedure: as §2, §3

[16] = Table 6, agar containing 50 μg/ml of cephaloridine, disc 20 μl, PS-6 240 μg/ml, reference antibiotics 10,000 μg/ml
[17] = Table 6, agar containing 50 μg/ml of penicillin G, disc 20 μl, PS-6 240 μg/ml, reference antibiotics 10,000 μg/ml

With CC(=O)NCCSC1=C(C(=O)OC(c2ccccc2)(c2ccccc2)c2ccccc2)N2C(=O)C(C(C)C)C2C1 (stereo not drawn) [Antibiotic PS-6 trityl ester] the Solubility in water (Solubility) was “Substantially insoluble”, the “Solubility in organic solvents” value (Solubility) was “Substantially insoluble in water and n-hexane; also recorded: Highly soluble in benzene, ethyl acetate, chloroform, methanol, ethanol, acetone, dimethylformamide (DMF) and dimethylsulfoxide (DMSO)” and the Acute toxicity [1] was “no acute toxicity”. For the same compound, the MIC (Proteus vulgaris P-5 [2]) was 25 µg/mL (≈ 45.1 µM), the MIC [3] was 20 µg/mL (≈ 36.1 µM) and the MIC ([4]; Table 9) was 25 µg/mL (≈ 45.1 µM). The Stability [5] was “more stable than antibiotic PS-6 or PS-7”, the “Antibiotic activity against Gram-negative bacteria of the genera Klebsiella, Proteus” value [6] was “good activity” and the “Antibiotic activity against Gram-negative bacteria of the genus Alcaligenes (Comamonas)” value [6] was “very strong activity”. The “Antibiotic activity against Gram-negative bacteria resistant to β-lactam antibiotics” value (from here on “Antibiotic activity … to β-lactam antibiotics”) [6] was “strong activity”, the “Antibiotic activity … to β-lactam antibiotics” value ([6]; listed as trityl ester of antibiotic PS-6) was “strong antibiotic activity” and the “Antibiotic activity against Gram-positive bacteria” value [6] was “very strong activity”. The ED50 [7] was 5.5 mg/kg, the “Therapeutic effect in infected mice” value [7] was “marked therapeutic effect” and the MIC ([8]; Table 9, ester dissolved in methanol) was 0.33 µg/mL (≈ 0.595 µM). For the same compound, the MIC (Citrobacter freundii E-9 [9]; Table 9) was 12.5 µg/mL (≈ 22.5 µM), the MIC ([10]; Table 9) was 1.34 µg/mL (≈ 2.42 µM) and the MIC ([11]; Table 9) was 0.33 µg/mL (≈ 0.595 µM). The MIC [12] was 0.33 µg/mL (≈ 0.595 µM).
For CCC1C(=O)N2C(C(=O)OC(c3ccccc3)(c3ccccc3)c3ccccc3)=C(SC=CNC(C)=O)CC12 (stereo not drawn) [Antibiotic PS-7 trityl ester], the Solubility in water (Solubility) was “Substantially insoluble”, the “Solubility in organic solvents” value (Solubility) was “Highly soluble in benzene ethyl acetate, chloroform, methanol, ethanol, acetone, dimethylformamide (DMF) and dimethylsulfoxide (DMSO); also recorded: Substantially insoluble in water and n-hexane” and the Acute toxicity [1] was “no acute toxicity”. The MIC (Proteus vulgaris P-5 [2]) was 25 µg/mL (≈ 46.4 µM), the MIC [3] was 10 µg/mL (≈ 18.6 µM) and the MIC ([4]; Table 10) was 25 µg/mL (≈ 46.4 µM). The Stability [5] was “more stable than antibiotic PS-6 or PS-7”, the “Antibiotic activity against Gram-negative bacteria of the genera Klebsiella, Proteus” value [6] was “good activity” and the “Antibiotic activity against Gram-negative bacteria of the genus Alcaligenes (Comamonas)” value [6] was “very strong activity”. The “Antibiotic activity … to β-lactam antibiotics” value [6] was “strong activity”, the “Antibiotic activity … to β-lactam antibiotics” value ([6]; listed as trityl ester of antibiotic PS-7) was “strong antibiotic activity” and the “Antibiotic activity against Gram-positive bacteria” value [6] was “very strong activity”. The ED50 [7] was 4.5 mg/kg, the “Therapeutic effect in infected mice” value [7] was “marked therapeutic effect” and the MIC ([8]; Table 10, ester dissolved in methanol) was 0.16 µg/mL (≈ 0.297 µM). The MIC (Citrobacter freundii E-9 [9]; Table 10) was 6.25 µg/mL (≈ 11.6 µM), the MIC ([10]; Table 10) was 1.34 µg/mL (≈ 2.49 µM) and the MIC ([11]; Table 10) was 0.16 µg/mL (≈ 0.297 µM). The MIC [12] was 0.16 µg/mL (≈ 0.297 µM).
With CC1(C)S[C@@H]2[C@H](NC(=O)Cc3ccccc3)C(=O)N2[C@H]1C(=O)O [penicillin G] the zone of inhibition at 10000 µg/mL (Proteus vulgaris P-5 [13]; Proteus vulgaris, P5, 18 h, read-out: Diameter of inhibitory zone, No addition) was 15 mm, the zone of inhibition at 240 µg/mL (Proteus vulgaris P-5 [13]; Proteus vulgaris, P5, 18 h, read-out: Inhibition zone, Control) was 15 mm and the “Inhibition zone, with cephaloridine” value (Proteus vulgaris P-5 [13]; [16]) was 15.0 mm. The “Inhibition zone, with penicillin G” value (Proteus vulgaris P-5 [13]; [17]) was 15.0 mm, the “Diameter of inhibitory zone, Cephaloridine-added” value (Proteus vulgaris P-5 [13]; Table 8, comparison disc 20 μl of 10,000 μg/ml, cephaloridine in the agar) was 15.0 mm and the zone of inhibition at 240 µg/mL (Serratia marcescens S-18; Serratia marcescens, S18, 18 h, read-out: Inhibition zone, Control) was 0 mm. For the same compound, the “Inhibition zone, with cephaloridine” value (Serratia marcescens S-18; [16]) was 0.0 mm, the “Inhibition zone, with penicillin G” value (Serratia marcescens S-18; [17]) was 0.0 mm and the zone of inhibition at 240 µg/mL (Citrobacter freundii E-9 [14]; Citrobacter freundii, E9, 18 h, read-out: Inhibition zone, Control) was 0 mm. For the same compound, the “Inhibition zone, with cephaloridine” value (Citrobacter freundii E-9 [14]; [16]) was 0.0 mm, the “Inhibition zone, with penicillin G” value (Citrobacter freundii E-9 [14]; [17]) was 0.0 mm and the “Synergistic enhancement of the activity of penicillin G or cephaloridine (β-lactam antibiotics)” value [15] was “no synergistic effect”. The “Synergistic enhancement of the activity of penicillin G or cephaloridine (β-lactam antibiotics)” value ([15]; listed as Penicillin G) was “No enhancement of antimicrobial activity”.
